What was measured:
Dynamic surface tension = assay type: physicochemical
From the text: (§1) Die Eigenschaften von mehreren erfindungsgemäßen Terpenethern werden in Tabelle 19 zusammengefasst und mit denen anderen Terpenethern verglichen. Tabelle 19

[1] = Foam height of terpene ether at t=0; assay type: physicochemical
From the text: as §1

CC(=O)OCC(COC1CC2CCC1(C)C2(C)C)OC(C)=O (stereo not drawn) [NP7, Diacetin-isobornytether]
Dynamische Oberflächenspannung Blasenfrequenz 1 Hz (Dynamic surface tension): 52 mN/m
Dynamische Oberflächenspannung Blasenfrequenz 3 Hz (Dynamic surface tension): 57 mN/m
Schaumhöhe t=0 [1]: 0 mm

CC1(C)C2CCC1(C)C(OCCOCCOCCO)C2 (stereo not drawn) [NP 6, Triethylenglykol-isobornylether]
Dynamische Oberflächenspannung Blasenfrequenz 1 Hz (Dynamic surface tension): 43 mN/m
Dynamische Oberflächenspannung Blasenfrequenz 3 Hz (Dynamic surface tension): 45 mN/m
Schaumhöhe t=0 [1]: 0 mm

CC1(C)C2CCC1(C)C(OCCOC1CC3CCC1(C)C3(C)C)C2 (stereo not drawn) [NP 23, Ethylenglykol-diisobornylether]
Dynamische Oberflächenspannung Blasenfrequenz 1 Hz (Dynamic surface tension): 66 mN/m
Dynamische Oberflächenspannung Blasenfrequenz 3 Hz (Dynamic surface tension): 68 mN/m
Schaumhöhe t=0 [1]: 6 mm

Dipropylenglykol-düsobornylether [NP 22]
Dynamische Oberflächenspannung Blasenfrequenz 1 Hz (Dynamic surface tension): 64 mN/m
Dynamische Oberflächenspannung Blasenfrequenz 3 Hz (Dynamic surface tension): 68 mN/m
Schaumhöhe t=0 [1]: 0 mm

Milchsäure-isobornylether [NP 14]
Dynamische Oberflächenspannung Blasenfrequenz 1 Hz (Dynamic surface tension): 45 mN/m
Dynamische Oberflächenspannung Blasenfrequenz 3 Hz (Dynamic surface tension): 47 mN/m
Schaumhöhe t=0 [1]: 0 mm

S-(-)-Milchsäuremethylester-isobornylether [NP2]
Dynamische Oberflächenspannung Blasenfrequenz 1 Hz (Dynamic surface tension): 65 mN/m
Dynamische Oberflächenspannung Blasenfrequenz 3 Hz (Dynamic surface tension): 67 mN/m
Schaumhöhe t=0 [1]: 0 mm

Tripropylenglykol-isobornylether [NP 3]
Dynamische Oberflächenspannung Blasenfrequenz 1 Hz (Dynamic surface tension): 45 mN/m
Dynamische Oberflächenspannung Blasenfrequenz 3 Hz (Dynamic surface tension): 63 mN/m
Schaumhöhe t=0 [1]: 0 mm
